Laboratory results published in PubChem BioAssay AID330 (DTP/NCI, 2004).
Several values for one entry are separate records, joined by “and”; a condition that tells them apart may be missing. Identical values can stand only once. Inconclusive results and toxic doses are left out.

System: P388 leukemia ip, CD2F1 mice, survival T/C
Experiment: NCI In Vivo Anticancer Drug Screen. Data for tumor model P388 Leukemia (intraperitoneal) in CD2F1 (CDF1) mice
Settings: endpoint: median survival time, higher = longer survival
Procedure, shortened: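 Mice carrying the transplanted tumor received test compound or vehicle. Survival was recorded in each group, and the value is the treated-group measurement divided by that of the vehicle-treated control group.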

[1] = dose: 60.0 mg/kg/injection, schedule: Q01DX005 (ip), vehicle: saline with Tween-80
[2] = dose: 120.0 mg/kg/injection, schedule: Q01DX005 (ip), vehicle: saline with Tween-80
[3] = dose: 240.0 mg/kg/injection, schedule: Q01DX005 (ip), vehicle: saline with Tween-80
[4] = dose: 50.0 mg/kg/injection, schedule: Q01DX005 (ip), vehicle: saline with Tween-80
[5] = dose: 100.0 mg/kg/injection, schedule: Q01DX005 (ip), vehicle: saline with Tween-80
[6] = dose: 200.0 mg/kg/injection, schedule: Q01DX005 (ip), vehicle: saline with Tween-80
[7] = dose: 50.0 mg/kg/injection, schedule: Q01DX009 (ip), vehicle: Klucel (hydroxypropylcellulose) (HPC)
[8] = dose: 100.0 mg/kg/injection, schedule: Q01DX009 (ip), vehicle: Klucel (hydroxypropylcellulose) (HPC)
[9] = dose: 200.0 mg/kg/injection, schedule: Q01DX009 (ip), vehicle: Klucel (hydroxypropylcellulose) (HPC)
[10] = dose: 50.0 mg/kg/injection, schedule: Q01DX009 (ip), vehicle: saline with Tween-80
[11] = dose: 100.0 mg/kg/injection, schedule: Q01DX009 (ip), vehicle: saline with Tween-80
[12] = dose: 200.0 mg/kg/injection, schedule: Q01DX009 (ip), vehicle: saline with Tween-80
[13] = dose: 60.0 mg/kg/injection, schedule: Q01DX005 (ip), vehicle: Klucel (hydroxypropylcellulose) (HPC)
[14] = dose: 120.0 mg/kg/injection, schedule: Q01DX005 (ip), vehicle: Klucel (hydroxypropylcellulose) (HPC)
[15] = dose: 240.0 mg/kg/injection, schedule: Q01DX005 (ip), vehicle: Klucel (hydroxypropylcellulose) (HPC)
[16] = dose: 50.0 mg/kg/injection, schedule: Q01DX005 (ip), vehicle: Klucel (hydroxypropylcellulose) (HPC)
[17] = dose: 100.0 mg/kg/injection, schedule: Q01DX005 (ip), vehicle: Klucel (hydroxypropylcellulose) (HPC)
[18] = dose: 200.0 mg/kg/injection, schedule: Q01DX005 (ip), vehicle: Klucel (hydroxypropylcellulose) (HPC)

COc1nc(N)c2ncn(C3CCCO3)c2n1 (stereo not drawn)
T/C (dose: 12.5 mg/kg/injection, schedule: Q01DX001 (ip), vehicle: Klucel (hydroxypropylcellulose) (HPC)): 100 % of control | T/C (dose: 25.0 mg/kg/injection, schedule: Q01DX001 (ip), vehicle: Klucel (hydroxypropylcellulose) (HPC)): 106 % of control

CCOc1cc2c(cc1C/C=C/c1ccc(OC)cc1)OCO2
T/C [1]: 103 % of control | T/C [2]: 103 % of control | T/C [3]: 113 % of control

CC(/C=C/c1ccc(Cl)cc1)=N\NC(N)=S
T/C (dose: 7.5 mg/kg/injection, schedule: Q01DX005 (ip), vehicle: saline with Tween-80): 100 % of control | T/C (dose: 15.0 mg/kg/injection, schedule: Q01DX005 (ip), vehicle: saline with Tween-80): 120 % of control | T/C (dose: 30.0 mg/kg/injection, schedule: Q01DX005 (ip), vehicle: saline with Tween-80): 124 % of control

O=Nc1c(NO)n(-c2ccccc2)c(=S)n1-c1ccccc1
T/C [4]: 95 % of control | T/C [5]: 109 % of control | T/C [6]: 104 % of control

Cc1ccccc1N1C(=O)C(C)(C)OC1=S
T/C [4]: 97 % of control | T/C [5]: 99 % of control | T/C [6]: 103 % of control

O=C1NC(=O)C23CC=CCC12CCCC3 (stereo not drawn)
T/C [7]: 101 % of control | T/C [8]: 100 % of control | T/C [9]: 100 % of control

COc1cc(NC(=O)SC2=NCCS2)cc(OC)c1
T/C [10]: 107 % of control | T/C [11]: 110 % of control | T/C [12]: 100 % of control

CCOC(=O)c1ccc2c(c1)NCc1cccc(OC)c1O2
T/C [13]: 100 % of control | T/C [14]: 103 % of control | T/C [15]: 100 % of control

CCCCCC(O)CCCCC
T/C (dose: 100.0 mg/kg/injection, schedule: Q04DX003 (ip), vehicle: saline with Tween-80): 100 % of control | T/C (dose: 200.0 mg/kg/injection, schedule: Q04DX003 (ip), vehicle: saline with Tween-80): 109 % of control | T/C (dose: 400.0 mg/kg/injection, schedule: Q04DX003 (ip), vehicle: saline with Tween-80): 100 % of control

Nc1nc(=O)cnn1C1OC(CO)C(O)C1O (stereo not drawn)
T/C (dose: 100.0 mg/kg/injection, schedule: Q01DX001 (ip), vehicle: saline with Tween-80): 98 % of control | T/C (dose: 200.0 mg/kg/injection, schedule: Q01DX001 (ip), vehicle: saline with Tween-80): 97 % of control | T/C (dose: 400.0 mg/kg/injection, schedule: Q01DX001 (ip), vehicle: saline with Tween-80): 103 % of control

CCOC(=O)C(C#N)C=Nc1cccc(N(C)C)c1 (stereo not drawn)
T/C [7]: 108 % of control | T/C [8]: 117 % of control | T/C [9]: 104 % of control

CSc1cc(C)[o+]c(C)c1
T/C (dose: 25.0 mg/kg/injection, schedule: Q01DX009 (ip), vehicle: Klucel (hydroxypropylcellulose) (HPC)): 101 % of control | T/C [7]: 113 % of control and 92 % of control | T/C [8]: 106 % of control and 107 % of control | T/C [9]: 122 % of control

CC([C@H](c1ccccc1)C1CCC(C(N)=O)(N2CCOCC2)C1)[N+](=O)[O-] (stereo partly drawn)
T/C [13]: 99 % of control | T/C [14]: 99 % of control | T/C [15]: 93 % of control

CCOC(=O)C(=CNc1cc(C)c2[nH]c3ccc(Cl)cc3c2c1C)C(=O)OCC
T/C [1]: 92 % of control | T/C [2]: 93 % of control | T/C [3]: 86 % of control and 94 % of control

O=C(CCc1ccc(O)c(O)c1)c1ccc(O)c(O)c1O
T/C (dose: 4.0 mg/kg/injection, schedule: Q01DX009 (ip), vehicle: saline): 111 % of control | T/C (dose: 8.0 mg/kg/injection, schedule: Q01DX009 (ip), vehicle: saline): 104 % of control | T/C (dose: 16.0 mg/kg/injection, schedule: Q01DX009 (ip), vehicle: saline): 102 % of control | T/C (dose: 32.0 mg/kg/injection, schedule: Q01DX009 (ip), vehicle: saline): 114 % of control

CCC1=C[C@H]2CN(CCc3c([nH]c4ccccc34)[C@@](C(=O)OC)(c3cc4c(cc3OC)N(C)[C@H]3[C@@](O)(C(=O)NN)[C@H](O)[C@]5(CC)C=CCN6CC[C@]43[C@@H]65)C2)C1
T/C (dose: 0.5 mg/kg/injection, schedule: Q01DX001 (ip), vehicle: water): 174 % of control | T/C (dose: 1.0 mg/kg/injection, schedule: Q01DX001 (ip), vehicle: water): 164 % of control and 175 % of control | T/C (dose: 2.0 mg/kg/injection, schedule: Q01DX001 (ip), vehicle: water): 183 % of control and 193 % of control

C/C(=N\O)C1CC2C=C(C#N)C1N(Cc1ccccc1)C2 (stereo not drawn)
T/C (dose: 8.75 mg/kg/injection, schedule: Q01DX005 (ip), vehicle: Klucel (hydroxypropylcellulose) (HPC)): 96 % of control | T/C (dose: 17.5 mg/kg/injection, schedule: Q01DX005 (ip), vehicle: Klucel (hydroxypropylcellulose) (HPC)): 93 % of control | T/C (dose: 35.0 mg/kg/injection, schedule: Q01DX005 (ip), vehicle: Klucel (hydroxypropylcellulose) (HPC)): 123 % of control

C=CCCN(c1ccc(C(=O)OCC)cc1)S(=O)(=O)c1ccc(C)cc1
T/C (dose: 25.0 mg/kg/injection, schedule: Q01DX009 (ip), vehicle: saline with Tween-80): 100 % of control | T/C [10]: 110 % of control | T/C [11]: 100 % of control | T/C [12]: 108 % of control

O=P1(c2ccccc2)CCCCN1Cc1ccccc1 (stereo not drawn)
T/C (dose: 100.0 mg/kg/injection, schedule: Q04DX003 (ip), vehicle: saline): 108 % of control | T/C (dose: 200.0 mg/kg/injection, schedule: Q04DX003 (ip), vehicle: saline): 94 % of control | T/C (dose: 400.0 mg/kg/injection, schedule: Q04DX003 (ip), vehicle: saline): 116 % of control

OCCSC(=S)Nc1ccc(Cl)c(Cl)c1
T/C (dose: 50.0 mg/kg/injection, schedule: Q01DX009 (ip), vehicle: saline): 96 % of control | T/C (dose: 100.0 mg/kg/injection, schedule: Q01DX009 (ip), vehicle: saline): 103 % of control

C=C(C)C(=O)N/C(N)=N\C(N)=O
T/C (dose: 50.0 mg/kg/injection, schedule: Q01DX005 (ip), vehicle: saline): 98 % of control | T/C (dose: 100.0 mg/kg/injection, schedule: Q01DX005 (ip), vehicle: saline): 101 % of control | T/C (dose: 200.0 mg/kg/injection, schedule: Q01DX005 (ip), vehicle: saline): 112 % of control

Nc1nc(=S)c2[nH]c(-c3ccccc3)nc2[nH]1
T/C (dose: 12.5 mg/kg/injection, schedule: Q01DX005 (ip), vehicle: other): 106 % of control | T/C (dose: 25.0 mg/kg/injection, schedule: Q01DX005 (ip), vehicle: other): 100 % of control | T/C (dose: 50.0 mg/kg/injection, schedule: Q01DX005 (ip), vehicle: other): 102 % of control | T/C (dose: 100.0 mg/kg/injection, schedule: Q01DX005 (ip), vehicle: other): 100 % of control

Cc1cc2nnc(-c3ccc(C#N)cc3)n2c2nnnn12
T/C (dose: 25.0 mg/kg/injection, schedule: Q01DX005 (ip), vehicle: saline with Tween-80): 100 % of control | T/C [4]: 100 % of control | T/C [5]: 104 % of control | T/C [6]: 104 % of control

CCCCC(NC(=O)C(Cl)Cl)C(=O)O (stereo not drawn)
T/C [16]: 94 % of control | T/C [17]: 98 % of control | T/C [18]: 88 % of control

COc1cc(OC)c(NC(=O)Oc2cc(C)c(Br)c(C)c2)cc1Cl
T/C [10]: 91 % of control | T/C [11]: 95 % of control | T/C [12]: 108 % of control

N#Cc1nnn2c1nc(N)c1c(Cl)cccc12
T/C [1]: 98 % of control | T/C [2]: 100 % of control | T/C [3]: 100 % of control

CCC1(O)C(=O)Nc2ccccc2C1=O (stereo not drawn)
T/C [13]: 98 % of control | T/C [14]: 88 % of control | T/C [15]: 98 % of control

COC(=O)C1=C(\N2CCCC2)CC(C)(C)CC(=O)/C=C\1C(=O)OC
T/C [16]: 92 % of control | T/C [17]: 93 % of control | T/C [18]: 104 % of control

CC(C)=C1NC(=O)NC1=O
T/C [16]: 101 % of control | T/C [17]: 101 % of control | T/C [18]: 102 % of control

CN(/N=C1\C(=O)Nc2ccccc21)c1ccccc1
T/C [4]: 95 % of control | T/C [5]: 93 % of control | T/C [6]: 88 % of control
